The subject of data set [1] is L6 GLUT4myc cells. Briefly: LDH cytotoxicity assay. Format: cell-based. Particulars: 16-18 h, concentration inducing less than 10% cell death. Here is the method:
(§1) To determine nontoxic concentrations, cells were treated overnight (16–18 h) with 0.1% DMSO or different concentrations of either CAME or CAEE (12.5, 25, 50 and 100 μM). Cell culture media were collected separately and kept on ice. The cells were rinsed with PBS then lysed with 1% Triton X-100 in culture media for 10 min and the lysate were centrifuged at 4 °C for 10 min at 250g. Lactate dehydrogenase (LDH) activity in medium and in lysates was assayed with the LDH-Cytotoxicity Assay Kit II (BioVision, Mountain View, CA) according to the manufacturer's protocol (Smith et al. [2011]). LDH activity was expressed as the ratio of released LDH (medium) to total (medium + lysate) LDH activity.
(§2) Similar to our previous study in C2C12 cells, the maximum nontoxic concentrations of CAME and CAEE were determined using a LDH assay kit. Concentrations that induced less than 10% cell death were chosen as the maximum nontoxic concentrations (Table 1).

In data set [2] the test system is H4IIE cells. In words: LDH cytotoxicity assay. It is filed as cell-based. Particulars: 16-18 h, concentration inducing less than 10% cell death. The protocol: as §1, §2
Data set [3] deals with 3T3-L1 cells. Briefly: LDH cytotoxicity assay. It is filed as cell-based. Particulars: 16-18 h, concentration inducing less than 10% cell death. The protocol:
as §1, §2

In data set [4] the target is T1, G6Pase (Rattus norvegicus, UniProt P43428).
T1 sequence (P43428 1-357): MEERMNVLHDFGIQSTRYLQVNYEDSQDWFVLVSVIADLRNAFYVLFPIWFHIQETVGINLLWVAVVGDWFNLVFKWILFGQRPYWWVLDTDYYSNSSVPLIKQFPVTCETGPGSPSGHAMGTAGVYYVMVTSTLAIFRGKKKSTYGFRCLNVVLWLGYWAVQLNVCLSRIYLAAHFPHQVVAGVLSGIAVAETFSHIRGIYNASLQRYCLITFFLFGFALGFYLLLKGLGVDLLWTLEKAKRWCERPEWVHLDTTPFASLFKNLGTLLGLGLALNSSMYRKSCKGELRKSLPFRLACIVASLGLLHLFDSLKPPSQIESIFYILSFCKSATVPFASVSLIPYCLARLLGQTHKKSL
In words: Enzymatic activity of G6Pase in H4IIE cells. Format: cell-based. Conditions: at 100 μM, relative to DMSO. The protocol:
At 90% confluence, H4-IIE cells were treated with 12.5, 25, 50 and 100 μM of either CAME or CAEE in serum free medium. Vehicle (0.1% DMSO)-treated and 100 nM insulin-treated cells served as the negative and positive control respectively. The activity of G6Pase was assessed by measuring the rate of glucose production in the presence of a non-limiting amount of glucose-6-phosphate (G6P) as described elsewhere (Nachar et al. [2013]). Total glucose production was measured using a commercial glucose assay kit (AutoKit Glucose; Wako Diagnostics, Richmond, VA). Protein content was measured using bicinchoninic acid (BCA) assay (Simpson [2008]) and G6Pase activity was expressed in relation to protein content.
Figure 2. CAME and CAEE inhibit G6Pase by mechanisms involving activation of AMPK. (A) H4IIE hepatocytes were treated for 16 h with several concentrations (12.5, 25, 50 and100 μM) of either CAME or CAEE and G6Pase activity was determined colorimetrically using a commercial glucose assay kit as described under Materials and Methods. Data are expressed relative to vehicle control (0.1% DMSO, 0% inhibition). Insulin (100 nM) applied for similar treatment period served as the positive control. (B and C) Cells were treated with the optimal nontoxic concentration of either CAME, CAEE (50 μM each), or DMSO (0.1%) for 18 h, insulin (100 nM), AICAR (1 mM) applied for 30 min served as the positive controls. (B) The upper blot was probed with anti-phospho-AMPK antibody (Thr 172) and the lower blot was probed with anti-pan AMPK. (C) Blots were probed with antibodies against phospho-Akt (Ser 473) or pan-Akt. Immunoblots are representative of three independent experiments with similar results. (D) Data are expressed as phospho-AMPK/pan-AMPK and are given as mean ± SEM from 3 experiments. *p < 0.05 indicates a significant difference, **(p < 0.01), ***(p < 0.001) from the vehicle control group.

For data set [5], the system named is C/EBP-β. Briefly: Western immunoblot C/EBP-β in 3T3-L1 adipocytes. It is filed as cell-based, mouse. Conditions: 100 μM (Figure 4 legend). The protocol: Insulin (100 nM) or aminoimidazole carboxamide ribonucleotide (AICAR; 1 mM) were added to some vehicle-treated wells 30 min prior to the end of the treatment and served as the positives controls. Protein content was assayed by the bicinchoninic acid method (Thermo Scientific Pierce Protein Research, Rockford, IL) standardized to bovine serum albumin. Western immunoblotting was performed as described elsewhere (Eid et al. [2010]). Membranes were incubated overnight with phospho-AMPK, phospho-Akt, GLUT4, GLUT1 and β-actin antibodies (1:1000 dilution, Cell Signalling Technology, Danvers, MA), or with PPAR-γ, SREBP-1 (1:200, Santa Cruze Biotechnology, Santa Cruz, CA), followed by incubation with HRP-coupled secondary antibody (1:10,000) for 1 h. Immunoreactive bands were visualized by enhanced chemiluminescence and quantified by the Scion Image program (Scion Corporation, Frederick, MD). Experiments were repeated on 3 different passages of cells, each passage containing all conditions in parallel.
Figure 4. CAME and CAEE inhibit C/EBP-β and PPAR-γ protein expression through mechanisms implicating AMPK pathway. Shown are representative blots of 3T3-adipocytes treated with the maximum nontoxic concentration (100 μM) of either CAME or CAEE. […] Data are expressed as C/EBP-β/β-actin (D), PPAR-γ/β-actin (E), phospho-Akt/pan-Akt (F) and phospho-AMPK/pan-AMPK (G). […]
In general terms: Immunoblotting shows a protein as a band on a membrane.

With `CCOC(=O)/C=C/c1ccc(O)c(O)c1` [CAEE, caffeic acid ethyl ester], the figures for the Maximum non-toxic concentration in data set [1], in data set [2] and in data set [3] were 50 µM, 50 µM and 100 µM, respectively. Further, in data set [4], the inhibition (in general, the percentage by which the read-out fell short of the control) at 100 µM is 62.7 ± 6%. Moreover, in data set [5], the “protein level of C/EBP-β” value is listed as “significantly reduced”.

Take `COC(=O)/C=C/c1ccc(O)c(O)c1` [CAME, CA methyl ester]: the values for the Maximum non-toxic concentration in data set [1], in data set [2] and in data set [3] were 50 µM, 100 µM and 100 µM, respectively. The same compound displayed an inhibition at 100 µM in data set [4] of 62 ± 6.9%. For the same compound, the “protein level of C/EBP-β” value in data set [5] was “significantly reduced”.

Values taken from PMC6130489, “Caffeic acid methyl and ethyl esters exert potential antidiabetic effects on glucose and lipid metabolism in cultured murine insulin-sensitive cells through mechanisms implicating activation of AMPK” (Pharmaceutical Biology, 2017).
